Test results from patent US9566342B2, “Compounds for treatment of heart failure” (SOLVOTRIN INNOVATIONS LIMITED, priority 2010, dated 2017).

How the values were obtained:
MMP-9 [1] = experiment: PMA-stimulated CaCo2 cells, zymography of media, MMP-9; type: cell-based
MMP-2 [2] = experiment: PMA stimulated breast cancer cell model (HT1080 cells), pro-MMP-2 / MMP-2; type: cell-based
MMP-2 [3] = molecular target: T1, MMP-2 (Homo sapiens, UniProt P08253); experiment: Direct inhibition of recombinant MMP-2, fluorogenic substrate; type: biochemical; parameters: purchased R&D Systems, Ireland; details: read-out: inhibition of recombinant human MMP-2
T1 sequence (P08253 110-660): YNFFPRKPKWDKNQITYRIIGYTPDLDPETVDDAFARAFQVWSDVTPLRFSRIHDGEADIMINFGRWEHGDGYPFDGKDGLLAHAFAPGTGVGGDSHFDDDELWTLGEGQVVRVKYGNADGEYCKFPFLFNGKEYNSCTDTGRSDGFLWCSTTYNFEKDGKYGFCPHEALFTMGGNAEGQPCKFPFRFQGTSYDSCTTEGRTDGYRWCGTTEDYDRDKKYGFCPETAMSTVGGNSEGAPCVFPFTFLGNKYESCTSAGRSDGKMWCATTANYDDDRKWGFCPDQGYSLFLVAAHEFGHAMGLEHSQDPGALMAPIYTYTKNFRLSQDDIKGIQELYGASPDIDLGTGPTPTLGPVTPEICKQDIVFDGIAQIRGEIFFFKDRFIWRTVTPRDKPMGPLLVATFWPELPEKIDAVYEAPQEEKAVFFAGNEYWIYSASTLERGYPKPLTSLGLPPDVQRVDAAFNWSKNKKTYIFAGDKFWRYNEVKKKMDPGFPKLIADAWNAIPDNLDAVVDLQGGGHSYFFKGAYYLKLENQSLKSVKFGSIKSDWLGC

MMP-9 [4] = experiment: Total MMP-9 levels on repeated oral administration in non-human primates; type: in vivo, cynomolgus monkeys
[5] = test system: Human Ventricular Cardiac Fibroblast (HCF); experiment: Human ventricular cardiac fibroblast proliferation (CellTitre-Glo); type: cell-based
[6] = test system: Human Peripheral Blood mononuclear cells (PBMC) stimulated with TNF-α; experiment: MMPs, TIMP-1 and inflammatory markers in supernatants of PBMC stimulated with TNF-α; type: cell-based
MMP-9 [7] = molecular target: T2, MMP-9 (Homo sapiens, UniProt P14780); experiment: Direct inhibition of recombinant MMP-9, fluorogenic substrate; type: biochemical; parameters: purchased R&D Systems, Ireland; details: read-out: inhibition of recombinant human MMP-9
T2 sequence (P14780 94-707): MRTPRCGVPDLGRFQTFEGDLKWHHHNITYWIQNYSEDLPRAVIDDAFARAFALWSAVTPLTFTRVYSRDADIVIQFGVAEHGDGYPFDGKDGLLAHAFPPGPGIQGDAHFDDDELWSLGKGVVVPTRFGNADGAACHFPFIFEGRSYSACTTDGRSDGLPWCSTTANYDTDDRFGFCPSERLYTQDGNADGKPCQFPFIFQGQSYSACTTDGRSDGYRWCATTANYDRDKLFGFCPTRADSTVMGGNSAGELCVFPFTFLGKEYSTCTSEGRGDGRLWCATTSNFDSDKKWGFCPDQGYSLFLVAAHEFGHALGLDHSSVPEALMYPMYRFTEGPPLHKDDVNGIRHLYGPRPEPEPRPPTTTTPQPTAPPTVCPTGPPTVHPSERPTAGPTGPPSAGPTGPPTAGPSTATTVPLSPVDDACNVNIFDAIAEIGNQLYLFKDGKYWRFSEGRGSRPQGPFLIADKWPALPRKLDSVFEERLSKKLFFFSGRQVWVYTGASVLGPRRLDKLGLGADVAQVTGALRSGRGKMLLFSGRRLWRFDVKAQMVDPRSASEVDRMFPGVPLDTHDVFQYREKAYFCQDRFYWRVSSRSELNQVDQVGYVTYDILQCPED

MMP-2 [8] = experiment: PMA-stimulated CaCo2 cells, zymography of media, MMP-2; type: cell-based; details: 150 uM
MMP-9 mRNA = experiment: TNFα treated human cardiac fibroblasts, MMP-9 transcription (QPCR); type: cell-based; details: HCF
MMP-2 [9] = molecular target: T1, MMP-2; experiment: Model of direct enzyme inhibition, MMP-2 (IC50); type: biochemical
MMP-9 [10] = molecular target: T2, MMP-9; experiment: Model of direct enzyme inhibition, MMP-9 (IC50); type: biochemical
MMP-2 mRNA = experiment: TNFα treated human cardiac fibroblasts, MMP-2 transcription (QPCR); type: cell-based; details: HCF, 10 ng/mL TNFα 72 hours, 75 or 150 μM
MMP-8 = MMP-8 (Homo sapiens, UniProt P22894); experiment: Direct enzyme inhibition, MMP-8; type: biochemical
Chain of MMP-8 (P22894 101-467, species assumed): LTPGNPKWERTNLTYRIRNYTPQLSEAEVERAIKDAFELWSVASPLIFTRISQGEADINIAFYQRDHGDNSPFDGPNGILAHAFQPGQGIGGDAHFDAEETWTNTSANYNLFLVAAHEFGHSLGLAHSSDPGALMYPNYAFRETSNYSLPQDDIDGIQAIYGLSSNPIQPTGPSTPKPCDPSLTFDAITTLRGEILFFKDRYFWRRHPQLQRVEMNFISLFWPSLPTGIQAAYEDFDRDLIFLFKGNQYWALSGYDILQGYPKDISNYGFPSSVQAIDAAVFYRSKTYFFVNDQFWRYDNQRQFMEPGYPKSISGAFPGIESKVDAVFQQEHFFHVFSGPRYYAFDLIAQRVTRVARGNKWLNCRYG

MMP-13 = MMP-13 (Homo sapiens, UniProt P45452); experiment: Direct enzyme inhibition, MMP-13; type: biochemical
MMP-1 = molecular target: T3, MMP-1 (Homo sapiens, UniProt P03956); experiment: Direct enzyme inhibition, MMP-1; type: biochemical
T3 sequence (P03956 100-469): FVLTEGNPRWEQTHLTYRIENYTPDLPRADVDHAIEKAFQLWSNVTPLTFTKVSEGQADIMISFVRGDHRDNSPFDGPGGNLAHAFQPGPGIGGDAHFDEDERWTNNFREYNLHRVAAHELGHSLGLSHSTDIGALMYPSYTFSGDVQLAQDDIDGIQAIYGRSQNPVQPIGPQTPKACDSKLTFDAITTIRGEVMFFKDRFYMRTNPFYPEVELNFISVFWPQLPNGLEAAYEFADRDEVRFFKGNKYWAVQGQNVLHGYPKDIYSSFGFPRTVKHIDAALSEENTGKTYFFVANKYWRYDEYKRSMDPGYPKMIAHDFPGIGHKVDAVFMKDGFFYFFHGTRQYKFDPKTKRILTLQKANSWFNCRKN

[11] = Blood pressure in non-human primates; details: cynomolgus monkeys, over dosing period
human colon cancer cells = experiment: Colon cancer cell invasiveness, in vitro model; type: cell-based; details: low dose, FIG. 10
[12] = 75 μM, 24 hours, TNFα, mean ± SEM
[13] = 150 μM, 24 hours, TNFα, mean ± SEM

C[C@H]1c2cccc(O)c2C(=O)C2=C(O)[C@]3(O)C(=O)C(C(=O)NCN(CCO[N+](=O)[O-])CCO[N+](=O)[O-])=C(O)[C@@H](N(C)C)[C@@H]3[C@@H](O)[C@@H]21 [SI1004, amido-N—[N,N-diethylnitrate-aminomethyl]-α-6-deoxy-5-oxytetracycline]
suppression of MMP-9 activity relative to PMA positive control (MMP-9 [1]): approximately 60%
conversion of pro-MMP-2 to active MMP-2 (activation of MMP-2) (MMP-2 [2]): do not appear to activate MMP-2
inhibition at 100 µM (MMP-2 [3]): 29.7 ± 2.1%
melting point: 101 to 104 °C
total plasma MMP-9, median AUC (MMP-9 [4]; NHPs, daily orogastric gavage for 72 hours, n=6): 4.3 µg·h/mL
change in MMP-9 from baseline to 72 hours (MMP-9 [4]; cynomolgus monkeys, oral gavage once daily for three days, n=6 per group): significantly reduced compared to doxycycline
suppression of total serum MMP-9 protein levels (MMP-9 [4]; cynomolgus monkeys, oral, daily for 3 days, vs doxycycline): more effective suppression
inhibition of HCF proliferation ([5]; 75-150 μM, 2% FCS following serum starvation for 72 hours): significant inhibition
inhibition of cardiac fibroblast proliferation (admixture study, FIG. 13) ([5]; 150 micromolar): significantly more effective at inhibiting cardiac fibroblast proliferation
MMP-3 in in vitro inflammatory cell models [6]: does not reduce MMP-3
Interleukin-1β protein level in PBMC supernatant [6, 12]: 27.8 ± 6.6 ng/mL
Interleukin-4 protein level in PBMC supernatant [6, 12]: 10.8 ± 0.2 ng/mL
Interleukin-5 protein level in PBMC supernatant [6, 12]: 35.8 ± 8.4 ng/mL
Interleukin-8 protein level in PBMC supernatant [6, 12]: 10960 ± 484 ng/mL
Interleukin-10 protein level in PBMC supernatant [6, 12]: 125.6 ± 32.2 ng/mL
Interleukin-13 protein level in PBMC supernatant [6, 12]: 80.8 ± 24.8 ng/mL
MMP-1 protein level in PBMC supernatant [6, 12]: 208 ± 102 ng/mL
MMP-2 protein level in PBMC supernatant [6, 12]: 120.4 ± 86.4 ng/mL
MMP-3 protein level in PBMC supernatant [6, 12]: 8.7 ± 5.2 ng/mL
MMP-10 protein level in PBMC supernatant [6, 12]: 26.6 ± 18.4 ng/mL
Interleukin-5 protein level in PBMC supernatant [6, 13]: 35.6 ± 6.4 ng/mL
Interleukin-10 protein level in PBMC supernatant [6, 13]: 142.0 ± 55.2 ng/mL
Interleukin-13 protein level in PBMC supernatant [6, 13]: 89.4 ± 13.2 ng/mL
MMP-1 protein level in PBMC supernatant [6, 13]: 171 ± 66.0 ng/mL
MMP-2 protein level in PBMC supernatant [6, 13]: 95.4 ± 52 ng/mL
MMP-3 protein level in PBMC supernatant [6, 13]: 9.1 ± 6.1 ng/mL
MMP-10 protein level in PBMC supernatant [6, 13]: 29.0 ± 14.6 ng/mL
inhibition at 100 µM (MMP-9 [7]): 26.6 ± 1.7%
inhibition of MMP-2 activity relative to PMA positive control (MMP-2 [8]): about 40%
MMP-9 protein levels in treated cell supernatants (MMP-9 mRNA): below the lower limit of quantification
TNFα induced upregulation of MMP-9 mRNA (MMP-9 mRNA; 10 ng/mL TNFα 72 hours, 75 or 150 μM): significantly inhibited
IC50 (MMP-2 [9]): 9.4 µM
IC50 (MMP-9 [10]): 25 µM
MMP-2 mRNA expression (MMP-2 mRNA): no significant effects
inhibition at 10 µM (MMP-8; 10 μM): ~26%
inhibition at 100 µM (MMP-8; 100 μM): ~60.7%
inhibition at 10 µM (MMP-13; 10 μM): ~46%
MMP-13 inhibition (MMP-13; at 1000 (so in the source)): around 74.5%
inhibition at 10 µM (MMP-1; 10 μM): ~19%
inhibition at 100 µM (MMP-1; 100 μM): ~63%
diastolic blood pressure [11]: 56.4±3.8 mmHg
mean systolic blood pressure [11]: 101±6.3 mmHg
colon cancer cell invasiveness (human colon cancer cells): more effective in reducing tumour cell invasiveness

Amido-N-[3-(Nitrooxymethyl)Piperidinomethyl]-α-6-Deoxy-5-Oxytetracycline [SI1005]
conversion of pro-MMP-2 to active MMP-2 (activation of MMP-2) (MMP-2 [2]): do not appear to activate MMP-2
change in MMP-9 from baseline to 72 hours (MMP-9 [4]; cynomolgus monkey, in vivo, po): significantly reduced compared to doxycycline and SI1004
IC50 (MMP-2 [9]): 63 µM
IC50 (MMP-9 [10]): 139 µM
MMP-8 inhibition (MMP-8; 10 μM): ~16.9%
MMP-8 inhibition (MMP-8; 100 μM): around 53.8%
MMP-13 inhibition (MMP-13; 10 μM): ~6.6%
MMP-13 inhibition (MMP-13; 100 μM): around 28.4%
MMP-1 inhibition (MMP-1; 10 μM): ~13%
MMP-1 inhibition (MMP-1; 100 μM): around 22%
colon cancer cell invasiveness (human colon cancer cells): more effective in reducing tumour cell invasiveness
